Laboratory results taken from BigSolDB 2.1.

CC(C)(C)c1cc(O)c(C(C)(C)C)cc1O
Conditions	solubility (mole fraction)
in acetone, 283.35 K	0.0332
in acetone, 285.65 K	0.0365
in acetone, 288.25 K	0.0413
in acetone, 290.55 K	0.0456
in acetone, 293.15 K	0.0519
in acetone, 295.35 K	0.057
in acetone, 298.05 K	0.0636
in acetone, 300.35 K	0.0691
in acetone, 303.15 K	0.0775
in acetone, 305.45 K	0.0836
in acetone, 308.05 K	0.0929
in acetone, 310.25 K	0.1
in acetone, 313.05 K	0.12
in acetone, 316.15 K	0.123
in acetone, 319.15 K	0.136
in acetone, 321.15 K	0.148
in acetone, 323.15 K	0.161
in ethyl acetate, 278.95 K	0.144
in ethyl acetate, 281.55 K	0.145
in ethyl acetate, 284.45 K	0.146
in ethyl acetate, 287.35 K	0.148
in ethyl acetate, 290.45 K	0.148
in ethyl acetate, 293.15 K	0.15
in ethyl acetate, 296.25 K	0.151
in ethyl acetate, 298.85 K	0.153
in ethyl acetate, 301.85 K	0.155
in ethyl acetate, 304.75 K	0.157
in ethyl acetate, 307.45 K	0.158
in ethyl acetate, 310.45 K	0.161
in ethyl acetate, 312.35 K	0.163
in ethyl acetate, 316.15 K	0.166
in ethyl acetate, 319.15 K	0.169
in ethyl acetate, 322.15 K	0.17
in ethyl acetate, 325.15 K	0.173
in ethyl acetate, 328.15 K	0.177
in ethyl acetate, 331.15 K	0.18
in ethyl acetate, 335.15 K	0.183
in ethyl acetate, 337.15 K	0.186
in ethyl acetate, 340.15 K	0.188
in ethyl acetate, 343.15 K	0.194
in ethyl acetate, 346.15 K	0.195
in methanol, 280.95 K	0.0647
in methanol, 283.55 K	0.065
in methanol, 285.95 K	0.0651
in methanol, 288.15 K	0.0653
in methanol, 290.65 K	0.0658
in methanol, 293.15 K	0.0667
in methanol, 295.55 K	0.0678
in methanol, 297.95 K	0.0688
in methanol, 300.65 K	0.0697
in methanol, 302.65 K	0.0707
in methanol, 305.15 K	0.0712
in methanol, 307.25 K	0.072
in methanol, 309.85 K	0.0727
in methanol, 312.05 K	0.0734
in methanol, 316.15 K	0.0766
in methanol, 319.15 K	0.078
in methanol, 322.15 K	0.08
in methanol, 325.15 K	0.0811
in methanol, 328.15 K	0.0833
in methanol, 331.15 K	0.0849
in methanol, 333.15 K	0.0863
